# Assay results as given in patent US20230220331A1, “TEMPORARY TREATMENT MEDIUM, TREATMENT KIT, EMBRYOGENESIS ARREST INHIBITOR, EMBRYOGENESIS ARREST INHIBITORY METHOD, DEVELOPMENTAL ENGINEERING PRODUCT PREPARATION METHOD, TRANSPLANTATION METHOD, THERAPEUTIC METHOD, AND DEVELOPMENTAL ENGINEERING PRODUCT” (priority 2020, published 2023).
# Assays:
# [1] = test system: immunodeficient mouse (nude) pronuclear stage embryos, BALB/c-nu; assay: Multi-gene knockout (BBOX1, IL2RG) in nude mouse embryos (Treatment Example 7); format: cell-based
# Method: 1. Up to 3 hours before TAKE, Y-27632-added mWM medium (Y-27632 final concentration 10 μM, an example of the “temporary treatment medium” of this example) and Y-27632-free mWM medium (an example of “normal medium” of this example) were dropped into 35 mm Petri dishes by 5 drops, respectively, to prepare the drops covered with paraffin oil.
# 2. Pronuclear stage embryos were collected from the drops, placed in Y-27632-added mWM medium, and cultured for about 30 minutes to 1 hour (temporary treatment).
# 3. After that, TAKE was performed.
# 4. After TAKE, the embryos were placed in Y-27632-added mWM medium and cultured for about 30 minutes to 1 hour (temporary treatment).
# 5. Then, the embryos were placed in Y-free mWM medium and cultured at 37° C. under 5% CO2 and (5% O2) conditions until the next day. If necessary, culture was continued or embryo transfer was performed in Y-27632-free mWM medium.
# In this production example, a multi-gene KO mouse was prepared by using an immunodeficient mouse (nude, a nude mouse) embryo.
# Specifically, a male of BALB/c-nu/nu and a female of BALB/c-nu/+ treated with ovarian hyperstimulation were crossed, and a pronuclear stage embryos were collected. The guide RNAs (crRNA: tracrRNA), which are two for the BBOX1 gene and two for the IL2RG gene, are electroporated at about 100 ng/μL per guide RNA, totaling about 400 ng/μL, are electroporated with 14 transfer pulses, and, before and after the electroporation, the embryos were cultured in the temporary treatment medium of this example.
# [2] = test system: NOD-scid Bbox1, IL2RG double knock-out mice; assay: Passage efficiency of mice prepared by using Y-27632 (Treatment Example 20); format: in vivo, mouse
# From the text: The double knock-out mice of IL2RG gene and the Bbox1 gene by using the NOD-scid mice in the above-mentioned treatment example 14 were mated with each other, and it was examined whether or not the newborn mouse was affected by Y-27632.
# [3] = test system: Pronuclear stage embryo of C57BL/6J; assay: Flox mouse production by the 2STEP method, Mecp2 / Drb1 (Treatment Example 2); format: cell-based
# Method: 1. Up to 3 hours before TAKE, Y-27632-added mWM medium (Y-27632 final concentration 10 μM, an example of the “temporary treatment medium” of this example), Y-27632-free mWM medium (an example of “normal medium” of this example), 5 drops of each medium were dropped on 35 mm Petri dish, and then covered with paraffin oil. For the drops, twice the number of the drops plates to be performed TAKE were prepared.
# 2. Pronuclear stage embryos were collected, placed in Y-27632-added mWM medium, and cultured for about 30 minutes to 1 hour (temporary treatment).
# 3. After that, the first TAKE was performed.
# 3a. In the case of frozen eggs, after the first TAKE, they were placed in a Y-27632-added mWM medium and cultured for about 30 minutes to 1 hour (temporary treatment).
# 3b. In the case of unfrozen eggs, after the first TAKE, they were placed in a Y-27632-added mWM medium and cultured under 37° C. and 5% CO2 (5% O2) conditions until the next day (temporary treatment).
# 4. After the temporary treatment, the embryos were placed in Y-27632-free mWM medium and cultured at 37° C. and 5% CO2 (5% O2) conditions until the next day.
# 5. Both were confirmed at the next day, and the embryos at the 2-cell stage were subjected to the second TAKE.
# 6. After the second TAKE, the embryos were placed in Y-27632-added mWM medium and cultured for about 30 minutes to 1 hour (temporary treatment).
# 7. Then, they were transferred to Y-27632-free mWM medium. If necessary, culture was continued or embryo transfer was performed.
# Therefore, in this preparation example, the temporary treatment medium containing Y-27632 was temporarily treated before and after the electroporation (EP) of the 2STEP method. Pronuclear stage embryo of C57BL/6J (CLEA Japan, Inc.) were used as an in-vitro-culture and female MCH (CLEA Japan, Inc.) were used as recipient.
# The present inventors conducted an experiment to obtain Flox mice by the 2STEP method targeting the Mecp2 gene.
# In Table 2, “m” indicates treatment with the normal medium, and “Y” indicates temporary treatment with the temporary treatment medium. […] That is, “m->m” uses the normal medium in the both step, “m->Y” was temporarily treated with the temporary treatment medium only in the first electroporation step, and “Y->Y” was temporarily treated with the temporary treatment medium in both steps.
# In each column, the proportions that the loxP sequence is inserted only on the left side by the first electroporation step (Left loxP), the loxP sequence is inserted only on the right side by the second electroporation step (Right loxP), and both loxP sequences inserted by both steps (2loxP) were respectively shown.
# [4] = of 4 surviving and 3 stillborn newborns analysed
# [5] = NOG-Bbox1, generation F1, 3 pregnancies
# [6] = NOG-Bbox1, generation F2, 8 pregnancies
# [7] = group Y → Y, 2STEP, Mecp2-Flox, blastocysts, listed as Y
# [8] = group m → Y, 2STEP, target Mecp2-Flox
smiles,measurement,setting,value
"C[C@@H](N)[C@H]1CC[C@H](C(=O)Nc2ccncc2)CC1 [Y-27632, trans-4-[(1R)-1-Aminoethyl]-N-4-pyrid inylcyclohexanecarboxamide]",pups born,"[1]; BALB/c nude embryos, 4 guide RNAs about 400 ng/μL, 14 transfer pulses, 63 embryos transplanted",16
same,analysed newborns with mutations,[1]; [4],3
same,analysed newborns with mutations in 2 genes,[1]; [4],1
same,ave. litter size,"[2]; NOG-Bbox1, generation F1",(7.7/preg.)
same,Total pups,[2]; [5],23
same,female pups,[2]; [5],13
same,male pups,[2]; [5],10
same,ave. litter size,"[2]; NOG-Bbox1, generation F2",(6.8/preg.)
same,Total pups,[2]; [6],54
same,female pups,[2]; [6],25
same,male pups,[2]; [6],29
same,effect on mouse passage and phenotype,[2]; offspring of mice produced with Y-27632 treated embryos,did not affect mouse passage and phenotype
same,Flox neonates obtained (%),"[3]; 2STEP, Mecp2, neonates, Y-27632 added",4%
same,Left loxP (proportion inserted),"[3]; group Y → Y (temporary treatment in both steps), 2STEP, Mecp2-Flox",1/15
same,Left loxP (%),"[3]; group Y → Y, 2STEP, Mecp2-Flox",(6.7%)
same,Right loxP (%),"[3]; group Y → Y, 2STEP, Mecp2-Flox",(13.3%)
same,Right loxP (proportion inserted),"[3]; group Y → Y, 2STEP, Mecp2-Flox",2/15
same,"2loxP (%), Flox blastocysts","[3]; group Y → Y, 2STEP, Mecp2-Flox, blastocysts",7%
same,"2loxP (%), Flox blastocysts",[3]; [7],(6.7%)
same,"2loxP (proportion, Flox blastocysts)",[3]; [7],1/15
same,2loxP (%),[3]; [8],(0%)
same,"2loxP (proportion, both loxP inserted)",[3]; [8],0/17
same,Left loxP (%),[3]; [8],(5.9%)
same,Left loxP (proportion inserted),[3]; [8],1/17
same,Right loxP (%),[3]; [8],(5.9%)
same,Right loxP (proportion inserted),[3]; [8],1/17
same,inbred strains of Flox mice obtained by the 2STEP method,"[3]; two types of genes (Mecp2, Drb1)",obtained only from the experimental groups to which Y-27632 were added
